Measurements taken from the NIST ThermoML archive (doi:10.1016/j.tca.2017.12.010).
± gives the expanded uncertainty stated by the source.

What was measured:
[1] = Liquid, DSC
[2] = Boiling temperature at pressure P; conditions: Liquid, DSC

Compound: CC(C)O [propan-2-ol]
- vapor or sublimation pressure ([1]; 355.71 K): 101.3 ± 7.9 kPa

Compound: C1CCCCC1 [cyclohexane]
- vapor or sublimation pressure ([1]; 353.82 K): 101.3 ± 7.9 kPa

Compound: CO [methanol]
- vapor or sublimation pressure ([1]; 337.78 K): 101.3 ± 7.9 kPa

Compound: Cc1ccccc1 [toluene]
- vapor or sublimation pressure ([1]; 383.6 K): 101.3 ± 7.9 kPa

Compound: O [water]
- Boiling temperature at pressure P ([2]; 92.9 kPa): 97.82 ± 1.6 °C
- Boiling temperature at pressure P ([2]; 93 kPa): 97.84 ± 1.6 °C
- Boiling temperature at pressure P ([2]; 93.5 kPa): 97.94 ± 1.6 °C
- Boiling temperature at pressure P ([2]; 94.1 kPa): 98.06 ± 1.6 °C
- Boiling temperature at pressure P ([2]; 101.3 kPa): 100.01 ± 1.6 °C
- Boiling temperature at pressure P ([2]; 395 kPa): 143.21 ± 1.6 °C
- Boiling temperature at pressure P ([2]; 585 kPa): 157.83 ± 1.6 °C
- Boiling temperature at pressure P ([2]; 592 kPa): 158.51 ± 1.6 °C
- Boiling temperature at pressure P ([2]; 791 kPa): 169.38 ± 1.6 °C
- Boiling temperature at pressure P ([2]; 1091 kPa): 183.29 ± 1.6 °C
- Boiling temperature at pressure P ([2]; 1392 kPa): 194.26 ± 1.6 °C
- Boiling temperature at pressure P ([2]; 1689 kPa): 203.20 ± 1.6 °C
- Boiling temperature at pressure P ([2]; 2088 kPa): 213.26 ± 1.6 °C
